Measured values taken from PubChem BioAssay AID1918998 (Molecular Pharmacology Branch, DTP, NCI, 2023).

Tested on: 521955-158-R2-J5-PDC complex spheroid growth
Test: Anticancer human tumor 521955-158-R2-J5-PDC patient-derived pancreatic carcinoma cell line growth inhibition [AhR]
Details: for IC50: curve of first compound; for viability, T/C: stronger effect = lower value
Outline: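 Agents were dosed in half-log steps down from roughly clinical Cmax, or from 10 microM where Cmax was unknown, alone and with AhR antagonists. Read-out: percent test/control growth of tumor spheroids containing HUVEC and MSC stromal cells.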
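For viability, T/C in this document: spheroids mix tumor cells with HUVEC endothelium and human MSC stroma; luminescence taken as viability surrogate after a week of drug exposure.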

Compound: Nc1ncn(C2CC(O)C(CO)O2)c(=O)n1 (stereo not given) + Cc1ccccc1N=Nc1ccc(NC(=O)c2ccnn2C)c(C)c1
- IC50 (second compound 0.1 µM): > 1 µM
- IC50 (second compound 0.316 µM): 0.811 µM
- IC50 (second compound 1 µM): > 1 µM
- IC50 (second compound 3.16 µM): > 1 µM
- IC50 (second compound 10 µM): > 1 µM
- viability, T/C (second compound 0.1 µM, first compound 0.00316 µM): 79%
- viability, T/C (second compound 0.1 µM, first compound 0.01 µM): 86.1%
- viability, T/C (second compound 0.1 µM, first compound 0.0316 µM): 92.4%
- viability, T/C (second compound 0.1 µM, first compound 0.1 µM): 62.6%
- viability, T/C (second compound 0.1 µM, first compound 0.316 µM): 55.5%
- viability, T/C (second compound 0.1 µM, first compound 1 µM): 50.7%
- viability, T/C (second compound 0.316 µM, first compound 0.00316 µM): 88.5%
- viability, T/C (second compound 0.316 µM, first compound 0.01 µM): 104%
- viability, T/C (second compound 0.316 µM, first compound 0.0316 µM): 86.6%
- viability, T/C (second compound 0.316 µM, first compound 0.1 µM): 83.8%
- viability, T/C (second compound 0.316 µM, first compound 0.316 µM): 61.9%
- viability, T/C (second compound 0.316 µM, first compound 1 µM): 47.4%
- viability, T/C (second compound 1 µM, first compound 0.00316 µM): 90.5%
- viability, T/C (second compound 1 µM, first compound 0.01 µM): 126%
- viability, T/C (second compound 1 µM, first compound 0.0316 µM): 96.6%
- viability, T/C (second compound 1 µM, first compound 0.1 µM): 90.2%
- viability, T/C (second compound 1 µM, first compound 0.316 µM): 94.2%
- viability, T/C (second compound 1 µM, first compound 1 µM): 65.4%
- viability, T/C (second compound 3.16 µM, first compound 0.00316 µM): 106%
- viability, T/C (second compound 3.16 µM, first compound 0.01 µM): 120%
- viability, T/C (second compound 3.16 µM, first compound 0.0316 µM): 110%
- viability, T/C (second compound 3.16 µM, first compound 0.1 µM): 88.3%
- viability, T/C (second compound 3.16 µM, first compound 0.316 µM): 104%
- viability, T/C (second compound 3.16 µM, first compound 1 µM): 67.1%
- viability, T/C (second compound 10 µM, first compound 0.00316 µM): 138%
- viability, T/C (second compound 10 µM, first compound 0.01 µM): 147%
- viability, T/C (second compound 10 µM, first compound 0.0316 µM): 140%
- viability, T/C (second compound 10 µM, first compound 0.1 µM): 127%
- viability, T/C (second compound 10 µM, first compound 0.316 µM): 95.2%
- viability, T/C (second compound 10 µM, first compound 1 µM): 88%
